{
  "source": "patent US20100120716",
  "conditions": "from C=CCCCCCC[C@@H](NC(=O)C1CC(OC(=O)N2Cc3ccccc3C2)CN1C(=O)N(C)CC=C)B1O[C@@H]2C[C@@H]3C[C@@H](C3(C)C)[C@]2(C)O1; rcm bond; Grubbs 2nd generation catalyst; toluene; 6.5 mM; 65.0 °C",
  "data": [
    {"smiles": "CN1CC=CCCCCCC[C@H](B2O[C@@H]3C[C@@H]4C[C@@H](C4(C)C)[C@]3(C)O2)NC(=O)C2CC(OC(=O)N3Cc4ccccc4C3)CN2C1=O", "note": "(stereo partly shown)", "values": [
      {"measurement": "ring closure, yield of all isomers", "value": 40, "unit": "%"}
    ]}
  ]
}
